Test results: patent publication US9233088B2, “Use of glutamate, glutamate derivatives or metabolites, glutamate analogues or mixtures thereof for the manufacture of a composition for the treatment of osteoporosis” (Protista Biotechnology AB, priority 2001, dated 2016)
Residues, ends and D or L forms follow the SMILES beside them.

How the values were obtained:
piglets [1] = assay: Architectural and geometric properties of bones from piglets given AKG or Ala-Gln orally; format: in vivo, pig; conditions: piglets 35 days, 0.4 g/kg b.w. oral, mean ± SEM
Procedure: (§1) All piglets suckled sow milk before weaning. After weaning at the age of 28 days piglets were fed ad libitum with a standard mixture Premix prestarter (PP) (Food plant-Motycz, Poland) and free access to water was allowed. Piglets were allotted to three experimental trials:
(§2) 2—Second group, receiving 0.4 g/kg/b.w. of L-alanyl-L-glutamine (ala-gln), (2 ml solution/kg b.w.)
(§3) Different parameters are used for defining and measuring the bone quality according to the invention. Used parameters are known to the skilled man in the art and are explained below: • 1) Maximum elastic strength measures the load, in Newtons (N), at […]. • 2) Ultimate strength measures the load, in Newtons (N), at […] of the bone. • 3) Cross-sectional area is the measure of the bone area on the cross section, in mm^2. • 4) Second moment of inertia is the measurement of the efficiency of the cross-sectional geometry to resist bending force, expressed in mm^4. • 5) Mean relative wall thickness is the wall thickness of the bone to its lumen. • 6) Bone mineral density (BMD) expresses the mineral content of the bone expressed in g/cm^2.
(§4) At the age of 35 days, piglets were sacrificed, eviscerated and bones were sampled.
Architectural and geometric properties of bone were estimated based on measurements of horizontal and vertical cross section as well as interior and exterior diameter of the bone.
Mean relative wall thickness (MRWT) expresses the ratio of wall to lumen measures and serves as an indicator in the process of architectural adaptation of bone to physiological stress during the growth of the body. When the lumen increases with unchanged wall thickness the MRWT decreases but bone resistance to strain increases.

piglets [2] = assay: Growth (bodyweight) and bone mineralisation during postnatal life of the pig; format: in vivo
Procedure: as §1, §2, §4

piglets [3] = assay: Three point bending test (Instron 4302) of bones from piglets given AKG or Ala-Gln orally; format: in vivo, pig; conditions: for Bone ultimate strength (Wf) femur: piglets 35 days of postnatal life, 0.4 g/kg b.w. oral once a day
Procedure: as §1, §2, §3, §4
Using Instron 4302 apparatus and applying three point bending test as presented in FIG. 1, the following properties of the bones were determined from curves showing the relation between load and deflection:
1) maximum elastic strength, Wy
4) maximum elastic deflection.

postmenopausal women = conditions: Gynecol. Endocrinol. 7:201-205 (1993); cited from earlier work
ovariectomized rats = assay: Femur bone mineral density in intact, shame operated and ovariectomized osteopenic female rats given AKG in drinking water; format: in vivo, Wistar rats; conditions: all three groups (INT, SHO, OVX), 60 days drinking water with AKG, p<0.01 in all groups
Procedure: 60 female Wistar rats at the age of 2 months and with an initial bodyweight of 200 g are used.
The animals are maintained in controlled conditions of 12/12 h dark/light ratio at 22° C.±2 and at 55%±2 humidity with free access to food and water.
The rats are divided into three groups (n=20), where Group 1 is shame operated, Group 2 is ovariectomized and Group 3 is intact, i.e. not operated at all.
On the day of surgery, all rats are anaesthetised with an intramuscular injection of ketamine and xylaline.
20 of the rats are shame-operated (SHO), where the ovaries are exteriorised and replaced intact.
The second group of ovariectomized rats (OVX) are submitted to ovariectomy from a dorsal approach.
Six months after ovariectomy, the animals from group 1 and 2, are divided into two additional sub-groups; one placebo and one experimental group.
After 60 days with placebo and experimental drinking water the rats are anaesthetised in CO2 and femur isolated for further analysis of bone mineral density.

turkeys = assay: Ulna bone mineral density (DEXA) after fracture and neurectomy in the turkey; format: in vivo; conditions: group A, 0.8 g/kg oral
Source text: Turkeys are kept in common cages, 10 turkeys/cage. The turkeys have free access to water and are fed ad libitum.

[4] = ribs 4-9, piglets 35 days, 0.4 g/kg b.w. oral, mean ± SEM

Compound	Cross-sectional area (A) femur (piglets [1]; femur)	Second moment of inertia (Ix) femur (piglets [1]; femur)	Cross-sectional area (A) humerus (piglets [1])	Cross sectional area (A) (ribs 4-9) (piglets [1]; ribs 4-9)	Second moment of inertia (ribs 4-9) (piglets [1]; ribs 4-9)	Bodyweight difference, day 14 (piglets [2]; day 14, control group always less than Ala-Gln group)	Bodyweight difference, day 21 (piglets [2]; day 21, control group always less than Ala-Gln group)	Bodyweight difference, day 35 (piglets [2]; day 35, control group always less than Ala-Gln group)	Bodyweight difference, day three (piglets [2]; day three of postnatal life, control group always less than Ala-Gln group)	Bone ultimate strength (Wf) femur (piglets [3]; mean ± SEM)	Bone maximum elastic strength (Wy) (ribs 4-9) (piglets [3]; [4])	Moment of ultimate strength ribs (4-9) (piglets [3]; [4])	Ultimate strength (Wf) (ribs 4-9) (piglets [3]; [4])	Increase in bone mineral density (postmenopausal women)	BMD difference between the AKG treated rats and the placebo treated rats (ovariectomized rats)	BMD of the ulna bone, difference compared to the saline treated turkeys (turkeys; left wing control (intact), p<0.01)	BMD of the ulna bone, AKG effect compared to the saline treated turkeys (turkeys; right wing experimental (neurectomized, fracture of the ulnae), p<0.055)	Yielding stress of the 5th rib (piglets [3]; 5th rib, 35-days-old piglets, versus control)
C[C@H](N)C(=O)N[C@@H](CCC(N)=O)C(=O)O [Ala-Gln, L-alanyl-L-glutamine] (H-Ala-Gln-OH)	60.1 ± 2.59 * mm^2	492.8 ± 12.81 ∇ mm^4	52.2 ± 2.48 * mm^2	9.62 ± 0.33 mm^2	10.88 ± 0.55 mm^4	about 690 g	about 419 g	about 313 g	about 96 g	1075.0 ± 28.16 N	442.9 ± 15.32 N	625.24 ± 1.5 ∇ N	450.2 ± 22.1 N	–	–	–	–	–
L-glutamine calcium monofluorophospate	–	–	–	–	–	–	–	–	–	–	–	–	–	4.25%	–	–	–	–
α-keto-glutaric sodium salt [AKG]	64.7 ± 3.82 * mm^2	–	52.7 ± 4.1 * mm^2	–	–	–	–	–	–	1123.0 ± 75.09 N	–	–	–	–	about 10%	25%	about 11%	significant increase
